Experimental data reported in US8247211B2, “Glycopeptide antibiotics” (American Cyanamid Company, priority 2001, dated 2012).
In brackets after ≈: the same amount, converted by molar mass.

Legend:
Enterococcus sp. = assay: In vitro antibacterial evaluation: minimum inhibitory concentration (MIC), broth dilution method; format: cell-based; settings: broth dilution, 5×10^5 CFU/mL, 18 hours at 35° C.
How it was run: (§1)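 NCCLS M7-A2 broth dilution; Muller-Hinton II […]; 5×10^5 CFU/mL; 64-0.06 μg/mL. MIC = lowest concentration with no growth.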

Escherichia coli = assay: as above; format: cell-based; settings: 5×10^5 CFU/mL, 18 hours at 35° C.
How it was run: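 MIC read as lowest drug level preventing visible growth. Organisms at 5×10^5 CFU/mL were exposed to a 64-0.06 μg/mL dilution series in Muller-Hinton II […] following NCCLS broth dilution standard M7-A2.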

Staphylococcus sp. = assay: as above; format: cell-based; settings: for MIC Staphylococcus aureus (ATCC 29213): strain ATCC 29213; for MIC Staphylococcus aureus (GC 1131): strain GC 1131; for MIC Staphylococcus aureus (GC 3051): strain GC 3051; for MIC Staphylococcus aureus (GC 3053): strain GC 3053; for MIC Staphylococcus aureus (GC 4541): strain GC 4541; for MIC Staphylococcus aureus (GC 4542): strain GC 4542; for MIC Staphylococcus aureus-SMITH (GC 4543): strain GC 4543; for MIC Staphylococcus aureus (GC 4544): strain GC 4544; for MIC Staphylococcus aureus (GC 4545): strain GC 4545; for MIC Staphylococcus haemolyticus (GC 4546): strain GC 4546; for MIC Coagulase Negative Staphylococcus (GC 4547): strain GC 4547; for MIC Coagulase Negative Staphylococcus (GC 4548): strain GC 4548; for MIC Coagulase Negative Staphylococcus (GC 4549): strain GC 4549; for MIC Coagulase Negative Staphylococcus (GC 4551): strain GC 4551; for MIC Coagulase Negative Staphylococcus (GC 6257): strain GC 6257
How it was run: as §1

Streptococcus sp. = assay: as above; format: cell-based; settings: broth dilution, 5×10^5 CFU/mL, 18 hours at 35° C.
How it was run: as §1

[1] = test system: Staphylococcus aureus-SMITH (GC 4543); assay: Acute lethal infection in mice (ED50); format: in vivo; settings: female CD-1 mice, intraperitoneal challenge, intravenous dose 30 min. after infection, 7 day survival ratios
How it was run: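 Female CD-1 mice (20 ± 1-2 g) were infected intraperitoneally with enough bacteria, suspended in Trypticase Soy Broth or hog gastric mucin, to kill untreated controls within 24-48 hr. Compound in saline or 5% dextrose was given intravenously 30 min after infection. ED50 came from pooled 7-day survival over 3 tests.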

[2] = broth dilution, 18 hours at 35° C.

Compound: CC(c1ccccc1)C1NC(=O)CNC(=O)C(CO)NC(=O)C(C(O)C2CNC(=N)N2C2OC(CO)C(O)C(O)C2O)NC(=O)C(C(O)C2CNC(=N)N2)NC(=O)C(Cc2ccc(OC3OC(CO)C(OC4OC5COC(CC6CCN(C(=O)OCc7ccccc7)CC6)OC5C(O)C4O)C(O)C3O)cc2)NC1=O (stereo not drawn) [Example 113]
- MIC Enterococccus avium (GC 4558) (Enterococcus sp.): 2 µg/mL (≈ 1.3 µM)
- MIC Enterococccus faecalis (ATCC 29212) (Enterococcus sp.): 2 µg/mL (≈ 1.3 µM)
- MIC Enterococccus faecalis (GC 2691) (Enterococcus sp.): 4 µg/mL (≈ 2.6 µM)
- MIC Enterococccus faecalis (GC 3059) (Enterococcus sp.): 2 µg/mL (≈ 1.3 µM)
- MIC Enterococccus faecalis (GC 4552) (Enterococcus sp.): 2 µg/mL (≈ 1.3 µM)
- MIC Enterococccus faecalis (GC 4553) (Enterococcus sp.): 2 µg/mL (≈ 1.3 µM)
- MIC Enterococccus faecalis (GC 4554) (Enterococcus sp.): 2 µg/mL (≈ 1.3 µM)
- MIC Enterococccus faecalis (GC 6189) (Enterococcus sp.): 2 µg/mL (≈ 1.3 µM)
- MIC Enterococccus faecium (GC 2243) (Enterococcus sp.): 2 µg/mL (≈ 1.3 µM)
- MIC Enterococccus faecium (GC 4556) (Enterococcus sp.): 2 µg/mL (≈ 1.3 µM)
- MIC Enterococccus faecium (GC 4557) (Enterococcus sp.): 2 µg/mL (≈ 1.3 µM)
- MIC Enterococcus faecalis (GC 2242) (Enterococcus sp.): 4 µg/mL (≈ 2.6 µM)
- MIC Escherichia coli (ATCC 25922) (Escherichia coli): 32 µg/mL (≈ 20.8 µM)
- MIC Escherichia coli (GC 4559) (Escherichia coli): 32 µg/mL (≈ 20.8 µM)
- MIC Escherichia coli (GC 4560) (Escherichia coli): 1 µg/mL (≈ 0.65 µM)
- MIC Staphylococcus aureus (ATCC 29213) (Staphylococcus sp.): 1 µg/mL (≈ 0.65 µM)
- MIC Staphylococcus aureus (ATCC 29213) (Staphylococcus sp.; [2]): 1 µg/mL (≈ 0.65 µM)
- MIC Staphylococcus aureus (GC 1131) (Staphylococcus sp.): 2 µg/mL (≈ 1.3 µM)
- MIC Staphylococcus aureus (GC 1131) (Staphylococcus sp.; [2]): 2 µg/mL (≈ 1.3 µM)
- MIC Staphylococcus aureus (GC 3051) (Staphylococcus sp.): 1 µg/mL (≈ 0.65 µM)
- MIC Staphylococcus aureus (GC 3051) (Staphylococcus sp.; [2]): 1 µg/mL (≈ 0.65 µM)
- MIC Staphylococcus aureus (GC 3053) (Staphylococcus sp.): 1 µg/mL (≈ 0.65 µM)
- MIC Staphylococcus aureus (GC 3053) (Staphylococcus sp.; [2]): 1 µg/mL (≈ 0.65 µM)
- MIC Staphylococcus aureus (GC 4541) (Staphylococcus sp.): 1 µg/mL (≈ 0.65 µM)
- MIC Staphylococcus aureus (GC 4541) (Staphylococcus sp.; [2]): 1 µg/mL (≈ 0.65 µM)
- MIC Staphylococcus aureus (GC 4542) (Staphylococcus sp.): 1 µg/mL (≈ 0.65 µM)
- MIC Staphylococcus aureus (GC 4542) (Staphylococcus sp.; [2]): 1 µg/mL (≈ 0.65 µM)
- MIC Staphylococcus aureus-SMITH (GC 4543) (Staphylococcus sp.; 18 hours at 35° C.): 1 µg/mL (≈ 0.65 µM)
- MIC Staphylococcus aureus-SMITH (GC 4543) (Staphylococcus sp.; [2]): 1 µg/mL (≈ 0.65 µM)
- MIC Staphylococcus aureus (GC 4544) (Staphylococcus sp.): 2 µg/mL (≈ 1.3 µM)
- MIC Staphylococcus aureus (GC 4544) (Staphylococcus sp.; [2]): 2 µg/mL (≈ 1.3 µM)
- MIC Staphylococcus aureus (GC 4545) (Staphylococcus sp.): 1 µg/mL (≈ 0.65 µM)
- MIC Staphylococcus aureus (GC 4545) (Staphylococcus sp.; [2]): 1 µg/mL (≈ 0.65 µM)
- MIC Staphylococcus haemolyticus (GC 4546) (Staphylococcus sp.): 1 µg/mL (≈ 0.65 µM)
- MIC Staphylococcus haemolyticus (GC 4546) (Staphylococcus sp.; [2]): 1 µg/mL (≈ 0.65 µM)
- MIC Coagulase Negative Staphylococcus (GC 4547) (Staphylococcus sp.): 1 µg/mL (≈ 0.65 µM)
- MIC Coagulase Negative Staphylococcus (GC 4547) (Staphylococcus sp.; [2]): 1 µg/mL (≈ 0.65 µM)
- MIC Coagulase Negative Staphylococcus (GC 4548) (Staphylococcus sp.): 0.5 µg/mL (≈ 0.325 µM)
- MIC Coagulase Negative Staphylococcus (GC 4548) (Staphylococcus sp.; [2]): 0.5 µg/mL (≈ 0.325 µM)
- MIC Coagulase Negative Staphylococcus (GC 4549) (Staphylococcus sp.): 1 µg/mL (≈ 0.65 µM)
- MIC Coagulase Negative Staphylococcus (GC 4549) (Staphylococcus sp.; [2]): 1 µg/mL (≈ 0.65 µM)
- MIC Coagulase Negative Staphylococcus (GC 4551) (Staphylococcus sp.): 1 µg/mL (≈ 0.65 µM)
- MIC Coagulase Negative Staphylococcus (GC 4551) (Staphylococcus sp.; [2]): 1 µg/mL (≈ 0.65 µM)
- MIC Coagulase Negative Staphylococcus (GC 6257) (Staphylococcus sp.): 0.5 µg/mL (≈ 0.325 µM)
- MIC Coagulase Negative Staphylococcus (GC 6257) (Staphylococcus sp.; [2]): 0.5 µg/mL (≈ 0.325 µM)
- MIC Streptococcus agalactiae (GC 4564) (Streptococcus sp.): 0.12 µg/mL (≈ 0.078 µM)
- MIC Streptococcus pneumoniae (GC 1894) (Streptococcus sp.): <0.06 µg/mL
- MIC Streptococcus pneumoniae (GC 4565) (Streptococcus sp.): <0.06 µg/mL
- MIC Streptococcus pneumonine (ATCC 6301) (Streptococcus sp.): <0.06 µg/mL
- MIC Streptococcus pyogenes (GC 4563) (Streptococcus sp.): <0.06 µg/mL
- median effective dose (ED50), Staphylococcus aureus-SMITH (GC 4543) [1]: 0.26 mg/kg

Compound: CC(c1ccccc1)C1NC(=O)CNC(=O)C(CO)NC(=O)C(C(O)C2CNC(=N)N2C2OC(CO)C(O)C(O)C2O)NC(=O)C(C(O)C2CNC(=N)N2)NC(=O)C(Cc2ccc(OC3OC(CO)C(OC4OC5COC(Cc6ccc(Cl)cc6)OC5C(O)C4O)C(O)C3O)cc2)NC1=O (stereo not drawn) [Example 120, Cyclo[glycyl-β-methylphenylalanyl-O-[4-O-[4,6-O-(4-chlorophenethylidene)hexopyranosyl]-hexopyranosyl]tyrosyl-3-(2-iminoimidazolidin-4-yl)seryl-3-(3-hexopyranosyl-2-iminoimidazolidin-4-yl)serylseryl]]
- MIC Enterococccus avium (GC 4558) (Enterococcus sp.): 1 µg/mL (≈ 0.698 µM)
- MIC Enterococccus faecalis (ATCC 29212) (Enterococcus sp.): 1 µg/mL (≈ 0.698 µM)
- MIC Enterococccus faecalis (GC 2691) (Enterococcus sp.): 1 µg/mL (≈ 0.698 µM)
- MIC Enterococccus faecalis (GC 3059) (Enterococcus sp.): 1 µg/mL (≈ 0.698 µM)
- MIC Enterococccus faecalis (GC 4552) (Enterococcus sp.): 1 µg/mL (≈ 0.698 µM)
- MIC Enterococccus faecalis (GC 4553) (Enterococcus sp.): 1 µg/mL (≈ 0.698 µM)
- MIC Enterococccus faecalis (GC 4554) (Enterococcus sp.): 1 µg/mL (≈ 0.698 µM)
- MIC Enterococccus faecalis (GC 6189) (Enterococcus sp.): 1 µg/mL (≈ 0.698 µM)
- MIC Enterococccus faecium (GC 2243) (Enterococcus sp.): 1 µg/mL (≈ 0.698 µM)
- MIC Enterococccus faecium (GC 4556) (Enterococcus sp.): 1 µg/mL (≈ 0.698 µM)
- MIC Enterococccus faecium (GC 4557) (Enterococcus sp.): 1 µg/mL (≈ 0.698 µM)
- MIC Enterococcus faecalis (GC 2242) (Enterococcus sp.): 1 µg/mL (≈ 0.698 µM)
- MIC Escherichia coli (ATCC 25922) (Escherichia coli): 16 µg/mL (≈ 11.2 µM)
- MIC Escherichia coli (GC 4559) (Escherichia coli): 16 µg/mL (≈ 11.2 µM)
- MIC Escherichia coli (GC 4560) (Escherichia coli): <0.5 µg/mL
- MIC Staphylococcus aureus (ATCC 29213) (Staphylococcus sp.): <0.5 µg/mL
- MIC Staphylococcus aureus (ATCC 29213) (Staphylococcus sp.; [2]): <0.5 µg/mL
- MIC Staphylococcus aureus (GC 1131) (Staphylococcus sp.): <0.5 µg/mL
- MIC Staphylococcus aureus (GC 1131) (Staphylococcus sp.; [2]): <0.5 µg/mL
- MIC Staphylococcus aureus (GC 3051) (Staphylococcus sp.): <0.5 µg/mL
- MIC Staphylococcus aureus (GC 3051) (Staphylococcus sp.; [2]): <0.5 µg/mL
- MIC Staphylococcus aureus (GC 3053) (Staphylococcus sp.): 1 µg/mL (≈ 0.698 µM)
- MIC Staphylococcus aureus (GC 3053) (Staphylococcus sp.; [2]): 1 µg/mL (≈ 0.698 µM)
- MIC Staphylococcus aureus (GC 4541) (Staphylococcus sp.): <0.5 µg/mL
- MIC Staphylococcus aureus (GC 4541) (Staphylococcus sp.; [2]): <0.5 µg/mL
- MIC Staphylococcus aureus (GC 4542) (Staphylococcus sp.): <0.5 µg/mL
- MIC Staphylococcus aureus (GC 4542) (Staphylococcus sp.; [2]): <0.5 µg/mL
- MIC Staphylococcus aureus-SMITH (GC 4543) (Staphylococcus sp.; 18 hours at 35° C.): <0.5 µg/mL
- MIC Staphylococcus aureus-SMITH (GC 4543) (Staphylococcus sp.; [2]): <0.5 µg/mL
- MIC Staphylococcus aureus (GC 4544) (Staphylococcus sp.): <0.5 µg/mL
- MIC Staphylococcus aureus (GC 4544) (Staphylococcus sp.; [2]): <0.5 µg/mL
- MIC Staphylococcus aureus (GC 4545) (Staphylococcus sp.): <0.5 µg/mL
- MIC Staphylococcus aureus (GC 4545) (Staphylococcus sp.; [2]): <0.5 µg/mL
- MIC Staphylococcus haemolyticus (GC 4546) (Staphylococcus sp.): <0.5 µg/mL
- MIC Staphylococcus haemolyticus (GC 4546) (Staphylococcus sp.; [2]): <0.5 µg/mL
- MIC Coagulase Negative Staphylococcus (GC 4547) (Staphylococcus sp.): 1 µg/mL (≈ 0.698 µM)
- MIC Coagulase Negative Staphylococcus (GC 4547) (Staphylococcus sp.; [2]): 1 µg/mL (≈ 0.698 µM)
- MIC Coagulase Negative Staphylococcus (GC 4548) (Staphylococcus sp.): <0.5 µg/mL
- MIC Coagulase Negative Staphylococcus (GC 4548) (Staphylococcus sp.; [2]): <0.5 µg/mL
- MIC Coagulase Negative Staphylococcus (GC 4549) (Staphylococcus sp.): <0.5 µg/mL
- MIC Coagulase Negative Staphylococcus (GC 4549) (Staphylococcus sp.; [2]): <0.5 µg/mL
- MIC Coagulase Negative Staphylococcus (GC 4551) (Staphylococcus sp.): <0.5 µg/mL
- MIC Coagulase Negative Staphylococcus (GC 4551) (Staphylococcus sp.; [2]): <0.5 µg/mL
- MIC Coagulase Negative Staphylococcus (GC 6257) (Staphylococcus sp.): <0.5 µg/mL
- MIC Coagulase Negative Staphylococcus (GC 6257) (Staphylococcus sp.; [2]): <0.5 µg/mL
- MIC Streptococcus agalactiae (GC 4564) (Streptococcus sp.): <0.5 µg/mL
- MIC Streptococcus pneumoniae (GC 1894) (Streptococcus sp.): <0.5 µg/mL
- MIC Streptococcus pneumoniae (GC 4565) (Streptococcus sp.): <0.5 µg/mL
- MIC Streptococcus pneumonine (ATCC 6301) (Streptococcus sp.): <0.5 µg/mL
- MIC Streptococcus pyogenes (GC 4563) (Streptococcus sp.): <0.5 µg/mL
- median effective dose (ED50), Staphylococcus aureus-SMITH (GC 4543) [1]: 0.06 mg/kg
